# Data: patent publication US20050164882A1, “Method for increasing the resistance of plants to the phytotoxicity of agrochemicals” (priority 2002, published 2005)
# Key:
# [1] = tested on: Echinochloa crus-galli (barnyardgrass, ECHCG); test: Greenhouse post-emergence phytotoxicity, barnyardgrass; format: in vivo; details: Table 2a, application rate 0.0039 kg/ha, scale 0 to 100
# Source text: (§1) The experimental period extended over 2 to 4 weeks.
# [2] = tested on: Oryza sativa (rice, ORYSA); test: Greenhouse post-emergence phytotoxicity, rice; details: Table 2a
# Protocol: The active ingredients were prepared separately or jointly as a 10% emulsion in a mixture of 85% by weight of cyclohexanone, 5% by weight of Nekanil® LN (Lutensol® AP6, wetter with emulsifying and dispersing action based on ethoxylated alkylphenols) and 10% by weight of Wettol® EM (nonionic emulsifier based on ethoxylated castor oil) and diluted with water to give the desired concentration.
# The culture containers used were plastic pots containing loamy sand with approximately 3.0% humus as substrate. The seeds of the test plants were sown separately for each species.
# The test plants were grown separately as seedlings and transplanted into the experimental containers a few days before the treatment.
# Depending on the species, the plants were kept at temperatures of from 10 to 25° C. or 20 to 35° C. The experimental period extended over 2 to 4 weeks. During this time, the plants were tended, and their response to the individual treatments was evaluated.
# The phytotoxicity was evaluated using a scale of from 0 to 100. In this context, 100 means complete destruction of at least the aerial parts, and 0 means no damage or normal course of growth.
# [3] = tested on: Pharbitis purpurea (morningglory, PHBPU); test: Greenhouse post-emergence phytotoxicity, morningglory; format: in vivo; details: scale 0 to 100
# Source text: as §1
# [4] = tested on: Triticum aestivum (spring wheat, TRZAS); test: Greenhouse post-emergence phytotoxicity, spring wheat; format: in vivo; details: Table 2b, scale 0 to 100
# Source text: as §1
# [5] = tested on: Chenopodium album (pigweed, CHEAL); test: Greenhouse post-emergence phytotoxicity, pigweed; format: in vivo; details: Table 2b, application rate 0.0313 kg/ha, scale 0 to 100
# Source text: as §1
# Rice cv. “Koshihikari” = test: Effect on plant growth: plant height (stunting) of rice clumps after seedbox spray and transplanting into the field; format: in vivo; details: 200 g of active ingredient A per hectare; three weeks after the treatment
# Source text: Rice cv. “Koshihikari” was sown in a seedbox and grown for 24 days under controlled warm and moist conditions in controlled-environment cabinets and in the greenhouse. Two days before the rice was transplanted into the field, each of the seedboxes was sprayed to runoff point with preparations of the active ingredient in the concentrations mentioned hereinbelow in the form of an aqueous suspension made with a stock solution consisting of 10% active ingredient, 85% cyclohexanone and 5% emulsifier. The seedboxes were subsequently cultured in the greenhouse for a further 2 days until the rice was manually transplanted into the field at a rate of 5 clumps per m^2.
# Three weeks after the treatment, the plant height of the rice clumps was measured and compared with untreated rice plants. The extent of plant stunting is a measure for the plant-damaging effect of substances on the root system.
smiles,measurement,setting,value
"Cc1c(C(=O)c2cnn(C)c2O)ccc(S(C)(=O)=O)c1C1=NOCC1 [B, [3-(4,5-dihydroisoxazol-3-yl)-4-methane-sulfonyl-2-methylphenyl]-(5-hydroxy-1-methyl-1H-pyrazol-4-yl)-methanone]",Pytotoxicity ECHCG,[1],90
same,Pytotoxicity ORYSA,"[2]; application rate 0.0039 kg/ha, scale 0 (no damage) to 100 (complete destruction)",20
"FC(F)(F)c1ccc(-c2nccc(Oc3cccc(C(F)(F)F)c3)n2)cc1 [C, 4-(3-trifluoromethylphenoxy)-2-(4-trifluoromethylphenyl)pyrimidine]",Pytotoxicity PHBPU,"[3]; Table 2a, application rate 0.0078 kg/ha",98
same,Pytotoxicity PHBPU,"[3]; Table 2a, application rate 0.0156 kg/ha",98
same,Pytotoxicity PHBPU,"[3]; Table 2b, application rate 0.0078 kg/ha",98
same,Pytotoxicity PHBPU,"[3]; Table 2b, application rate 0.0156 kg/ha",98
same,Pytotoxicity TRZAS,[4]; application rate 0.0078 kg/ha,20
same,Pytotoxicity TRZAS,[4]; application rate 0.0156 kg/ha,25
same,Pytotoxicity TRZAS,[4]; application rate 0.0313 kg/ha,30
same,Pytotoxicity CHEAL,[5],98
same,Pytotoxicity ORYSA,"[2]; application rate 0.0078 kg/ha, scale 0 to 100",10
same,Pytotoxicity ORYSA,"[2]; application rate 0.0156 kg/ha, scale 0 to 100",10
"C[C@H](Nc1c(-c2c(F)cc(F)cc2F)c(Cl)nc2ncnn12)C(F)(F)F [A, [5-chloro-6-(2,4,6-trifluorophenyl)-[1,2,4]triazolo[1,5-a]pyrimidin-7-yl]-((S)-2,2,2-trifluoro-1-methylethyl)amine]",stunting (plant height compared with untreated rice plants),Rice cv. “Koshihikari”,15%
